Test results from patent US20100130579A1, “CANCER THERAPY” (Georgetown University, priority 2006, published 2010).

Legend:
[1] = system: cyclin E1; experiment: RT-PCR of cyclin E1 mRNA in prostate cancer cells; assay type: cell-based, human; settings: PC3 or LNCaP cells, mahanine treatment
Procedure: (§1) FIG. 5. RASSF1A down-regulates cyclin D1 expression in prostate cancer cells but not other cyclins. […] RNA was extracted, and RT-PCR assays were performed to detect RASSF1A, cyclin A1, B1, D1, E1 and GAPDH mRNAs. Representative photograph from an experiment that was repeated thrice. Quantitative estimations of relative levels of cyclin D1 and RASSF1A mRNAs were determined by densitometric measurements of RT-PCR gels from three independent experiments after normalization with GAPDH.
(§2) Genes of interest were amplified using 500 ng of total RNA reverse-transcribed to cDNA using a Superscript II kit (Invitrogen) with random hexamers. Human-specific primers were designed using the Primer Quest program and purchased from Integrated DNA Technologies, Inc (Coralville, Iowa). […] After amplification, PCR products were separated on 1.5% agarose gels and visualized by ethidium bromide fluorescence using the Fuji LAS-1000 Imager. […] Band intensities were quantified by using ImageJ software (NIH, Bethesda, Md.).

[2] = system: Akt; settings: prostate cancer cells; cited from earlier work
[3] = system: RASSF1A; experiment: RT-PCR of RASSF1A expression in cancer cells; assay type: cell-based, human
Procedure: FIGS. 1A-1D. Mahanine induces RASSF1A in prostate and other cancer cells. FIG. 1A: Microarray analyses of PC3 cells treated with ([…] (+) or vehicle (−) for 2 days, RNA was extracted and microarray analysis was performed. FIG. 1B: RT-PCR data showing the expression of RASSF1A and GAPDH in untreated normal prostate epithelial cells (PrEC) and human prostate cancer cells (PC3). FIG. 1C: PC3 (left panel) and LNCaP (right panel) cells were treated with 0, 1, 2 and 3 μg/ml mahanine for 3 days. RNA was extracted, and RT-PCR assays were performed to detect RASSF1A and GAPDH expression. Representative photograph from an experiment that was repeated thrice. Quantitative estimations of relative levels of RASSF1A mRNAs (lower panels) were determined by densitometric measurements of RT-PCR gels from three independent experiments after normalization with GAPDH. […]
Genes of interest were amplified using 500 ng of total RNA reverse-transcribed to cDNA using a Superscript II kit (Invitrogen) with random hexamers. […] After amplification, PCR products were separated on 1.5% agarose gels and visualized by ethidium bromide fluorescence using the Fuji LAS-1000 Imager. […] Band intensities were quantified by using ImageJ software (NIH, Bethesda, Md.).

[4] = system: cyclin B1; experiment: RT-PCR of cyclin B1 mRNA in prostate cancer cells; assay type: cell-based, human; settings: PC3 or LNCaP cells, mahanine treatment
Procedure: as §1, §2

[5] = system: cyclin A1; experiment: RT-PCR of cyclin A1 mRNA in prostate cancer cells; assay type: cell-based, human; settings: PC3 or LNCaP cells, mahanine treatment
[6] = system: cyclin D1; experiment: Immunofluorescence staining of cyclin D1 localization; assay type: cell-based, human; settings: PC3 cells, 2 μg/ml, 2 days
Procedure: FIGS. 3A-3C. Mahanine down-regulates cyclin D1 protein in prostate cancer cells. FIG. 3A and FIG. 3B: Western blots showing cyclin D1 protein levels in PC3 (A) and LNCaP (B) cells treated with 0, 1, 2 and 3 μg/ml mahanine for 3 days. Protein lysates (50 μg) from PC3 and LNCaP cells were resolved on 12% SDS-PAGE, and immunoblots were probed with antibodies to cyclin D1. All immunoblots were re-probed with β-actin antibodies to ensure equal loading. Representative photographs from an experiment that was repeated thrice. Quantitative analyses of relative levels of cyclin D1 proteins are shown on the right panels. […] FIG. 3C: PC3 cells were plated on chamber slides and treated with or without 2 μg/ml mahanine for 2 days. Cells were then fixed in methanol, incubated with cyclin D1 antibody overnight, Alexi Fluor-conjugated secondary antibodies for 1 hour and counter stained with propidium iodide (PI). Slides were then mounted and examined using a fluorescence microscope. Photographs were taken at the same magnification (×20) and then transported to Photoshop. Representative photographs from an experiment that was repeated twice.
Immunofluorescence staining: PC3 cells were plated onto chamber slides and treated with vehicle or mahanine (2 μg/ml) for 2 days. The cells were fixed in methanol, air-dried, and re-hydrated with PBS. […]

[7] = system: caspase-3; settings: PC3 cells; cited from earlier work

SMILES: CC(C)=CCC[C@@]1(C)C=Cc2c(c(C)cc3c2[nH]c2cc(O)ccc23)O1 [mahanine]
- cyclin E1 expression (RT-PCR) [1]: did not alter the expression
- Akt activation state [2]: deactivated Akt
- induction of RASSF1A expression (RT-PCR) ([3]; A431, A549, ASPC-1, HT-29, MCF7 and SKOV-3 cells, 2 and 3 μg/ml, 2 days): induced RASSF1A expression
- induction of RASSF1A gene expression (RT-PCR) ([3]; PC3 cells, 1, 2 and 3 μg/ml, 3 days, dose-dependent): 20-80 folds
- cyclin B1 expression (RT-PCR) [4]: did not alter the expression
- cyclin A1 expression (RT-PCR) [5]: did not alter the expression
- nuclear localization of cyclin D1 [6]: reduced and/or prevented the nuclear localization
- caspase-3 cleavage and activation [7]: greatly increased caspase-3 cleavage and activation
